Assay results published in patent publication US10688194B2, “Cell penetrating peptides for intracellular delivery of molecules” (AADIGEN, LLC, priority 2012, dated 2020).
Like-named read-outs stand apart in the source and are kept apart here. Ends that are not written are not given here.

Columns and labels:
HIV-1-LAI = type: cell-based; details: for IC50: -LAI; for fold higher antiviral activity than AZT: associated to the carrier peptide VEPEP-3; for anti viral activity: scrambled peptides
Protocol: (§1) Adherent HS68 fibroblasts, HeLa, PC3, MCF-7, SCK3-Her2, PBMC cell lines (from American Type Culture Collection (ATCC)) were cultured in Dulbecco's Modified Eagle's Medium supplemented with 2 mM glutamine, 1% antibiotics (streptomycin 10,000 μg/ml, penicillin, 10,000 IU/ml) and 10% (w/v) foetal calf serum (FCS), at 37° C. in a humidified atmosphere containing 5% CO2. Stock solutions of VEPEP-3/peptide particles were prepared by complexing 1 μM peptide with VEPEP-3 peptides at a molar ratio of 1/20 for 30 min at 37° C. Lower concentrations of VEPEP-3-carrier/peptide (from 500 nM to […]) were obtained by serial dilution of the stock complexes in PBS, in order to preserve the same VEPEP-3-carrier/peptide ratio. 150,000 cells seeded in a 35 mm dish the day prior transfection, were grown to 60% confluence and overlaid with 200 μl of preformed complexes, incubated for 3-5 min, then 400 μl of DMEM were added. After 30 min. incubation at 37° C., 1 ml of fresh DMEM containing 16% foetal calf serum (FCS) was added in order to reach a final FCS concentration of 10%, without removing the overlay of VEPEP-3/peptide complexes. Cells were returned to the incubator for 24 hrs. For cdk4 and CDK2 derived peptides cell proliferation was monitored after 24 and 48 hrs. For peptide-targeting integrase, HIV proliferation was analyzed on activated PBMC cells after 3 and 5 days. Data reported are an average of 3 or 4 distinct experiments.
The anti-HIV activities of the peptides (PC4D, PC6D & PC4S) and VEPEP-3/peptides were assayed according to previously described method (Roisin et al, 2004). Phytohemagglutinin-P (PHA-P)-activated peripheral blood mononuclear cells (PBMC) treated by increasing concentrations of peptide (from 100 to 0.1 nM), one hour later, were infected with hundred 50% tissue culture infectious doses (TCID50) per 100,000 cells of the HIV-1-LAI or different resistant strains (Barre-Sinoussi et al, 1983). Viruses were amplified in vitro on PHA-P-activated PBMC. Viral stock was titrated using PHA-P-activated PBMC, and 50% TCID50 were calculated using Karber's formula (Karber 1931). Samples were maintained throughout the culture, and cell supernatants were collected at day 7 post-infection and stored at −20 C. Viral replication was measured by quantifying RT activity in cell culture supernatants. In parallel, cytotoxicity of the compounds was evaluated in uninfected PHA-P-activated PBMC by colorimetric 3-(4-5 dimethylthiazol-2-yl)2,5 diphenyl tetrazolium bromite (MTT) assay on day 7 (Mossmann 1983). Experiments were performed in triplicate and repeated with another blood donor. Data analyses were performed using SoftMax® Pro 4.6 microcomputer software: percent of inhibition of RT activity or of cell viability were plotted vs. concentration and fitted with quadratic curves; 50% effective doses (ED50) and cytotoxic doses (CD50) were calculated.

HEK-2 = type: cell-based
Protocol: as §1
(§2) A peptide C2 or C4 concentration of 200 nM was sufficient to block proliferation of Hela, MCF7, HEK-2, HS-68 and U2OS cells.

Hela [1] = type: cell-based
Protocol: as §1, §2

MCF7 [2] = type: cell-based
Protocol: as §1, §2

Hela [3] = type: cell-based; remark: listed apart in the source
Protocol: as §1, with “Data reported are an average of 3 or 4 distinct experiments.” left out

[4] = system: Hela, MCF7, HEK-2, HS-68 and U2OS cells; assay: Cell proliferation after VEPEP-3 mediated delivery of C2/C4, several lines; type: cell-based; details: delivered by VEPEP-3
Protocol: as §1, with “Data reported are an average of 3 or 4 distinct experiments.” left out

MDA_MB cells = type: cell-based
PNA (15 mer-PNA) = assay: Fluorescence titration, VEPEP-3/cargo binding: PNA; details: cargo: 15 mer-PNA
Protocol: (§3) Fluorescence experiments were performed on a PTI spectrofluorimeter at 25° C. in a NaCl 154 mM buffer. Intrinsic Trp-fluorescence of VEPEP-3 was excited at 290 nm and emission spectrum was recorded between 310 and 400 nm, with a spectral band-pass of 2 and 8 nm for excitation and emission, respectively. FITC-fluorescence of labelled-peptide was excited at 492 nm and emission recorded between 500 and 580 nm. For VEPEP-3/peptide interaction, 0.5 μM of FITC-labelled peptide was titrated by increasing concentrations of VEPEP-3. All measurements were corrected for the dilution and curve fitting were performed by using Grafit software (Erithacus).
(§4) VEPEP-3 peptides also form stable particles with small aromatic molecules including Daunomycin, Paclitaxel, doxorubicin, porphyrin and charged molecules including nucleotide, nucleoside and peptide-analog of nucleic acids or fluorescent dyes (FIGS. 1A-1C). The dissociation constant for small hydrophobic molecule ranges between 0.05 to 2 μM, depending on the nature of the dyes and of the peptides.

[5] = Fluorescence titration, VEPEP-3/cargo binding: small hydrophobic molecule; details: cargo: Doxorubicine; for Kd: read-out: Kd, SHM
Protocol: as §3, §4

protein (GFP & Nanobody) = assay: Fluorescence titration, VEPEP-3/cargo binding: protein; details: cargo: protein (GFP & Nanobody)
Protocol: as §3
(§5) VEPEP-3 peptide form stable complexes with peptides and proteins. The binding of cargos to VEPEP-3 was monitored by fluorescence spectroscopy using the […] intrinsic Trp groups of VEPEP-3 (3 to 5 Trp-residues) and extrinsic fluorescently labelled cargoes (using Cy3, Cy5 or FITC). Curve fitting reveal that VEPEP-3 strongly binds the different cargoes with dissociation constant in the nanomolar range (examples with VEPEP-3a, VEPEP-3C, and VEPEP-3g and three different cargoes are reported in FIGS. 1A-1C, all the data are reported in Table 1).

Peptide (C4 and C2) = assay: Fluorescence titration, VEPEP-3/cargo binding: peptide
Protocol: as §3, §5

Cyclic peptide (PC4) = assay: Fluorescence titration, VEPEP-3/cargo binding: cyclic peptide; details: cargo: Cyclic peptide (PC4)
Protocol: as §3, §5

HeLa and U2OS cells = assay: Toxicity of VEPEP-3 particles, MTT assay and cyclophilin mRNA level; details: complexed with short peptide and PNA at ratio 1/20
Protocol: Toxicity of VEPEP-3/peptide or VEPEP-3/protein complexes was investigated on Hela and HS-68 cell lines. 30,000 cells seeded in 24-well plated the day prior transfection, were incubated with increasing concentrations of peptide or protein complexed with VEPEP-3 at a 20/1 molar ratio ranging from 1 to 5 μM ([…]), for 30 min prior to addition of medium to reach a final 10% concentration of FCS. Cytotoxic response was measured 12 hr or 24 hr later by monitoring the housekeeping gene cyclophilin mRNA level (Quantigen, Panomic Inc.) and by colorimetric MTT assay (Sigma, Germany), respectively. For MTT assay, cell culture medium was removed and replaced with PBS containing 2.5 mg/ml of MTT for 4 hr. Results correspond to the average of 3 separate experiments.

MCF7 [6] = assay: Inhibition of cancer cell proliferation by delivered small molecule drugs; type: cell-based; details: Homo sapiens
Protocol: (§6) Adherent HS68 fibroblasts, HeLa, PC3, MCF-7, SCK3-Her2, PBMC cell lines (from American Type Culture Collection (ATCC)) were cultured in Dulbecco's Modified Eagle's Medium supplemented with 2 mM glutamine, 1% antibiotics (streptomycin 10,000 μg/ml, penicillin, 10,000 IU/ml) and 10% (w/v) foetal calf serum (FCS), at 37° C. in a humidified atmosphere containing 5% CO2. […] 150,000 cells seeded in a 35 mm dish the day prior transfection, were grown to 60% confluence and overlaid with 200 μl of preformed complexes, incubated for 3-5 min, then 400 μl of DMEM were added. After 30 min. incubation at 37° C., 1 ml of fresh DMEM containing 16% foetal calf serum (FCS) was added in order to reach a final FCS concentration of 10%, without removing the overlay of VEPEP-3/peptide complexes. Cells were returned to the incubator for 24 hrs. […] Data reported are an average of 3 or 4 distinct experiments.

SKB3 = assay: as above; type: cell-based
Protocol: as §6

[7] = drug complexed with VEPEP-3a 1/20, read-out: VEPEP-3a 1/20 IC50
[8] = drug complexed with VEPEP-3g 1/20, read-out: VEPEP-3g 1/20 IC50
[9] = SKB3, drug complexed with VEPEP-3a 1/20, read-out: VEPEP-3a 1/20 IC50
[10] = SKB3, drug complexed with VEPEP-3g 1/20, read-out: VEPEP-3g 1/20 IC50
[11] = SKB3, free drug, read-out: Free drug IC50

| Molecule | Binding, PNA (PNA (15 mer-PNA)) | Binding, SHM [5] | Kd [5] | Binding, Protein (protein (GFP & Nanobody)) | Kd (protein (GFP & Nanobody)) | Binding, peptide (Peptide (C4 and C2)) | Kd (Peptide (C4 and C2)) | Binding, Cyclic peptide (Cyclic peptide (PC4)) | toxicity (HeLa and U2OS cells; levels up to 200 nM) | toxicity (HeLa and U2OS cells; maximum concentration of 1 μM) | other results |
| --- | --- | --- | --- | --- | --- | --- | --- | --- | --- | --- | --- |
| KWETWWET [PC6D, KWETWWET] |  |  |  |  |  |  |  |  |  |  | IC50 (HIV-1-LAI): 0.09 ± 0.05 nM; fold higher antiviral activity than AZT (HIV-1-LAI): 15 fold |
| KKQVLAMEHLVT [C2, KKQVLAMEHLVT] |  |  |  |  |  |  |  |  |  |  | IC50 (HEK-2): 102 ± 24 nM; IC50 (Hela [1]): 37 ± 15 nM; IC50 (MCF7 [2]): 67 ± 15 nM; IC50 (Hela [3]): 36 ± 21 nM; peptide concentration sufficient to block proliferation [4]: 200 nM; IC50 (MDA_MB cells): 46 ± 14 nM |
| RWTEWEWW [PC4D, RWTEWEWW] |  |  |  |  |  |  |  |  |  |  | IC50 (HIV-1-LAI): 0.12 ± 0.05 nM; fold higher antiviral activity than AZT (HIV-1-LAI): 15 fold |
| X1RWYEKWYTEFPRRRR [VEPEP-3d] | Yes | Yes | 100 nM | Yes | 100 nM | yes | 10 to 20 nM | yes | No toxicity | mild toxicity | Kd (PNA (15 mer-PNA)): 100 nM |
| KKQVRMAHLVLT [C4, KKQVRMAHLVLT] |  |  |  |  |  |  |  |  |  |  | IC50 (HEK-2): 78 ± 10 nM; IC50 (Hela [1]): 35 ± 12 nM; IC50 (MCF7 [2]): 58 ± 6 nM; IC50 (Hela [3]): 36 ± 21 nM; peptide concentration sufficient to block proliferation [4]: 200 nM; IC50 (MDA_MB cells): 46 ± 14 nM |
| X1KWWERWWREWPRKRK [VEPEP-3b] | Yes | Yes | 500 nM | Yes | 500 nM | yes | 10 to 20 nM | yes | No toxicity | mild toxicity | Kd (PNA (15 mer-PNA)): 200 nM |
| X1LWWSRWWRSWFRLWFR [VEPEP-3g] | Yes | Yes | 20 nM | Yes | 20 to 100 nM | yes | 10 to 20 nM | yes | No toxicity | mild toxicity |  |
| KAETWAET (HELM PEPTIDE1{[ac].K.A.E.T.W.A.E.T.[SCCN[*:1]]}$$$$V2.0; SMILES CC(=O)N[C@@H](CCCCN)C(=O)N[C@@H](C)C(=O)N[C@@H](CCC(=O)O)C(=O)N[C@H](C(=O)N[C@@H](Cc1c[nH]c2ccccc12)C(=O)N[C@@H](C)C(=O)N[C@@H](CCC(=O)O)C(=O)N[C@H](C(=O)NCCS)[C@@H](C)O)[C@@H](C)O) [PC6S] |  |  |  |  |  |  |  |  |  |  | anti viral activity (HIV-1-LAI): do not show any anti viral activity |
| X1LWWRRWWSRWWPRWRR [VEPEP-3f] | Yes | Yes | 20 nM | Yes | 20 to 100 nM | yes | 10 to 20 nM | yes | No toxicity | mild toxicity |  |
| TWFTEWFT (HELM PEPTIDE1{[ac].T.W.F.T.E.W.F.T.[SCCN[*:1]]}$$$$V2.0; SMILES CC(=O)N[C@H](C(=O)N[C@@H](Cc1c[nH]c2ccccc12)C(=O)N[C@@H](Cc1ccccc1)C(=O)N[C@H](C(=O)N[C@@H](CCC(=O)O)C(=O)N[C@@H](Cc1c[nH]c2ccccc12)C(=O)N[C@@H](Cc1ccccc1)C(=O)N[C@H](C(=O)NCCS)[C@@H](C)O)[C@@H](C)O)[C@@H](C)O) [PC4S] |  |  |  |  |  |  |  |  |  |  | anti viral activity (HIV-1-LAI): do not show any anti viral activity |
| X1RWWRLWWRSWFRLWRR [VEPEP-3e] | Yes | Yes | 20 nM | Yes | 20 to 100 nM | yes | 10 to 20 nM | yes | No toxicity | mild toxicity |  |
| CC(=O)O[C@H]1C(=O)[C@@]2(C)[C@H]([C@H](OC(=O)c3ccccc3)[C@]3(O)C[C@H](OC(=O)[C@H](O)[C@@H](NC(=O)c4ccccc4)c4ccccc4)C(C)=C1C3(C)C)[C@]1(OC(C)=O)CO[C@@H]1C[C@@H]2O [Taxol, taxol] |  |  |  |  |  |  |  |  |  |  | IC50 (MCF7 [6]; [7]): 200 nM; IC50 (MCF7 [6]; [8]): 700 nM; IC50 (SKB3; [9]): 500 nM; IC50 (SKB3; [10]): 800 nM; IC50 (SKB3; [11]): 9000 nM |
| X1RWWEKWWTRWPRKRK [VEPEP-3c] | Yes | Yes | 200 nM | Yes | 200 nM | yes | 10 to 20 nM | yes | No toxicity | mild toxicity | Kd (PNA (15 mer-PNA)): 200 nM |
| COc1cccc2c1C(=O)c1c(O)c3c(c(O)c1C2=O)C[C@@](O)(C(=O)CO)C[C@@H]3O[C@H]1C[C@H](N)[C@H](O)[C@H](C)O1 [Doxo, doxorubicin] |  |  |  |  |  |  |  |  |  |  | IC50 (MCF7 [6]; [7]): 200 nM; IC50 (MCF7 [6]; drug complexed with VEPEP-3c 1/20, read-out: VEPEP-3c 1/20 IC50): 500 nM; IC50 (MCF7 [6]; [8]): 200 nM; IC50 (MCF7 [6]; free drug, read-out: Free drug IC50): 7000 nM; IC50 (SKB3; [9]): 300 nM; IC50 (SKB3; SKB3, drug complexed with VEPEP-3c 1/20, read-out: VEPEP-3c 1/20 IC50): 400 nM; IC50 (SKB3; [10]): 200 nM; IC50 (SKB3; [11]): 10000 nM; fold more efficient when complexed with VEPEP-3 (SKB3; complexed versus free): 25 fold; IC50 (SKB3; text of b118, cell line not stated, values match SKB3 line of Table 4, read-out: IC50, proliferation of cancer cells): 10000 nM |
